We go through 4 molecules from patent US7432045B2 (priority 2003, dated 2008).

Where two headings read alike, the source gives them in different places. Peptide text beside a SMILES is read from it. * marks the point of attachment. Biotin = O=C1N[C@H]2[C@H](CS[C@H]2CCCCC(=O)*)N1; Ahx = NCCCCCC(=O)O

Series [1] deals with HSV-1 KOS mutant hrR3. The settings on record: read-out: inhibition of hrR3 infection IC50; serum-free conditions.
The test system of the next series is HSV-1 KOS. The experiment in a line: Plaque reduction assay. The settings on record: presence of serum. The format is cell-based. The procedure:
Cell culture and virus: The procedures for growing Vero cells and preparing high titer stocks of HSV-1 KOS as described in Grau et al., Invest. Ophthal. and Vis. Sci. 30: 2474 (1989) were utilized. Vero cells were maintained in carbonate-buffered DMEM supplemented with 5% calf serum and 5% fetal bovine serum (regular medium). For some studies, cells were switched to serum-free DMEM buffered with 25 mM HEPES (pH 7.4) and allowed to adapt to that medium for 30 min prior to experimental treatments. Vero cells were seeded into wells (0.28 cm^2) of microtiter plates either at 3.5×10^4 cells/well for use 1 day later (8×10^4 cells/well) or at 1×10^4 cells/well for use 3 days later (2×10^5 cells/well).
Plaque reduction assay: Confluent Vero cell cultures in microtiter plates were infected for 1 hour at 37° C. in 40 μL of medium. Except where indicated, peptide treatments in 40 μL of medium lasted from 1 hour before through 1 hour after infection. At the end of the adsorption period, the cultures were re-fed with 100 μL of regular medium. Plaque formation was scored 2 days later and the number of plaques scored per well was normalized to the number counted in the absence of peptide. Using an ocular micrometer, plaque size (π/2×L×S) was determined by measuring the largest plaque diameter (L) and the diameter at a 90° angle to that (S). The size of each of the first 40 scored plaques was measured except when a plaque included less than 10 rounded cells or touched the side of the well.

Series [2] relates to HSV-1 KOS mutant hrR3. In words: Inactivation of pre-adsorbed virus (virus inactivation). It is filed as cell-based. The procedure: (§1) Two assays were used to assess the ability of the TAT peptides to inhibit infection of Vero cells with the hrR3 virus. In both assays, the virus was preadsorbed to cells at 4° C. and entry was initiated in the presence of peptide by shifting the cultures to a permissive temperature (30-37° C.). One hour later, the peptide was rinsed off. The entry blocking activity was measured in half of the cultures, in which any extracellular virus remaining after the peptide treatment was inactivated with low pH citrate buffer. The rest of the cultures were exposed to PBS instead of citrate buffer and used to measure virus inactivation. Virus inactivation depended on persistent effects of the peptide lasting for a period of eight hours. At the end of that period, all cultures were fixed and infected cells were detected by staining with X-gal.
(§2) Virus (m.o.i.=0.025) was preadsorbed to Vero cells for 1 h at 4° C. before cultures were exposed to TAT-C (FIG. 15A), bTAT-9X (FIG. 15B), or n50,51TAT-C (FIGS. 15C, 15D) for 1 h at 33 (FIGS. 15A, 15B), 31 (FIG. 15C), or 37° C. (FIG. 15D). […] Inhibition of entry was measured in the citrate-treated cultures, in which any remaining external virus was inactivated immediately following exposure to peptide (●). Persistent virus inactivation lasting, at least in part, for the 8 h period following exposure to peptide, was measured in the PBS-treated cultures (◯). The IC50s measured in these experiments are included in Table 5.

Another series can be described thus: in vitro. The settings on record: African green monkey.
Series [3] deals with HSV-1 KOS mutant hrR3. Conditions: read-out: post-entry effects IC50; peptide added after citrate treatment, 8 h.
Series [4] has as its system HSV-1 KOS mutant hrR3. The experiment in a line: LacZ+ virus (hrR3) entry assay with pre-adsorbed virus (entry block). It is filed as cell-based. The method, then:
LacZ^+ virus (hrR3) entry assay: Confluent Vero cell cultures in 96-well microtiter plates were switched to Hepes-buffered serum-free DMEM, cooled on ice to 4° C. for 30 min, and infected with hrR3 for 1 hour at 4° C. in 40 μL of medium. Unattached virus was removed by rinsing with ice-cold medium. Treatments with antiviral peptide SEQ ID NO:1, referred to as EB, or a control peptide which comprised the RRKK tetra-peptide (SEQ ID NO:16) attached to a scrambled version of the membrane transiting peptide RRKKLAALPLVLAAPLAVLA (SEQ ID NO:17) (referred to as EBX), or mock-treatments with peptide-free medium were carried out in serum-free DMEM as indicated. Virus entry was initiated by transferring cultures to 37° C. To inactivate any remaining extracellular virus, cultures were rinsed with PBS and exposed to low pH citrate buffer (40 mM citric acid, 10 mM KCl, 135 mM NaCl, pH 3.0, according to Highlander et al., J. Virol. 61:3356 (1987), for 1 min at 23° C. The citrate was rinsed off with PBS and cultures were maintained in serum-supplemented DMEM until they were fixed with 0.5% gluteraldehyde in 5×PBS for 30 min at 23° C., stained for β-galactosidase activity for 1 hour or overnight at 23° C. with X-gal (Fisher Biotech; BP1615-1) in 1×PBS containing […], 1.3 mM K4Fe(CN)6, and 1.3 mM K3Fe(CN)6, and scored for the presence of blue […] cells.
In these studies, the hrR3 virus was pre-adsorbed to cells for 1 hour at 4° C. before ice cold 25 μM EB or EBX were added in serum-free DMEM. After an additional 1 hour at 4° C., cultures were shifted to 37° C. to initiate virus entry. At 15 min intervals following the temperature shift, any virus remaining outside the cells was inactivated by washing the cultures with low pH citrate buffer. Cultures were then rinsed and returned to peptide-free serum-supplemented DMEM until they were fixed and stained for β-galactosidase 8 hours after the temperature shift.
as §1, §2

A further series concerns hrR3 virions. The experiment in a line: Inactivation of virions in solution. The format is cell-based, HSV-1. The settings on record: 37° C.; read-out: Inactivation of Virions 37° C. IC50. The procedure: Inactivation of virions: To assess the ability of peptides to inactivate virions, 3-4×10^6 pfu/mL of virus was mixed on ice with peptide in serum-free DMEM and incubated for 1 h at 4 or 37° C. Aliquots (10 μL) were diluted 1000-fold into peptide-free serum-supplemented DMEM at 23° C. and 50 μL aliquots were assayed in triplicate for infectivity in Vero cell cultures (dilution assay). Alternatively, 10 μL aliquots were diluted into 1 mL of ice-cold peptide-free serum-supplemented DMEM and the virus was pelleted as described above (centrifugation assay). Viral pellets were then resuspended in 250 μL serum-supplemented DMEM and 50 μL aliquots were assayed in triplicate for infectivity in Vero cell cultures.
Some of the virus diluted without the addition of NaCl was pelleted immediately (Control), while the rest of the diluted virus was stored at 4° C. and pelleted 19 h later. The virus was pelleted and assayed for infectivity as described in Example 1.

In a further series the test system is hrR3. In words: Virucidal assay. It is filed as cell-based, HSV-1. The procedure: […] The treated virus was diluted 200-fold with serum-supplemented DMEM and assayed for infectivity approximately 1 hour later in microtiter wells seeded with Vero cells (3.5×10^4 cells/well) 1 d earlier. Forty or 100 microliter volumes of diluted virus were adsorbed for 1 or 2 h at 37° C. and lacZ^+ cells were scored 8 hours later. In some experiments, aliquots of diluted virus were first dialyzed (Spectra/Por; MWCO 12-14,000) overnight at 4° C. against a 60-fold excess volume of Hepes-buffered serum-supplemented DMEM or forced by syringe through 0.22 μm membranes (Millex-GV; Millipore) before the remaining infectious virus was assayed.

[5] abbreviates: 33° C., read-out: Virus Inactivation IC50 (pre-adsorbed virus).
Setting [6] is: 33° C., read-out: Entry Block IC50.

For the molecule `N=C(N)NCCC[C@H](NC(=O)[C@@H](N)CCCNC(=N)N)C(=O)N[C@@H](CCCCN)C(=O)N[C@@H](CCCCN)C(=O)O` [R-R-K-K tetramer, R-R-K-K, reference compound] (H-RRKK-OH; N-terminus and C-terminus assumed), the IC50 in the series on HSV-1 KOS mutant hrR3 [1] was 1300 µM. In addition, the “concentration with no antiviral activity” value in the series with HSV-1 KOS was above 200 µM.

For the molecule `CC(C)C[C@H](NC(=O)CCCCCNC(=O)CCCC[C@@H]1SC[C@@H]2NC(=O)N[C@@H]21)C(=O)N[C@H](C(=O)N[C@@H](CC(C)C)C(=O)N[C@@H](C)C(=O)N[C@@H](C)C(=O)N1CCC[C@H]1C(=O)N[C@@H](CC(C)C)C(=O)N[C@@H](C)C(=O)N[C@H](C(=O)N[C@@H](CC(C)C)C(=O)N[C@@H](C)C(=O)N1CCC[C@H]1C(=O)NCC(=O)N[C@@H](CCCNC(=N)N)C(=O)N[C@@H](CCCCN)C(=O)N[C@@H](CCCCN)C(=O)N[C@@H](CCCNC(=N)N)C(=O)N[C@@H](CCCNC(=N)N)C(=O)N[C@@H](CCC(N)=O)C(=O)N[C@@H](CCCNC(=N)N)C(=O)N[C@@H](CCCNC(=N)N)C(=O)N[C@@H](CCCNC(=N)N)C(=O)N[C@@H](CS)C(N)=O)C(C)C)C(C)C` [b12TAT-C] ({Biotin-Ahx}-LVLAAPLAVLAPGRKKRRQRRRC-NH2), the IC50 was 11 µM in the series with HSV-1 KOS mutant hrR3 [2] (setting [5]), around 200 µM in the series “in vitro”, 100 µM in the series on HSV-1 KOS mutant hrR3 [3] and 3.3 µM in the series on HSV-1 KOS mutant hrR3 [4] (setting [6]).

Take `CC(C)C[C@H](NC(=O)[C@H](CC(=O)O)NC(=O)[C@H](CC(N)=O)NC(=O)[C@@H](NC(=O)[C@@H](NC(=O)[C@H](C)NC(=O)CNC(=O)[C@H](C)NC(=O)[C@H](Cc1ccc(O)cc1)NC(=O)CNC(=O)[C@@H]1CCCN1C(=O)[C@H](CCCNC(=N)N)NC(=O)[C@H](CCCNC(=N)N)NC(=O)[C@H](CCCNC(=N)N)NC(=O)[C@H](CCC(N)=O)NC(=O)[C@H](CCCNC(=N)N)NC(=O)[C@H](CCCNC(=N)N)NC(=O)[C@H](CCCCN)NC(=O)[C@H](CCCCN)NC(=O)[C@H](CCCNC(=N)N)NC(=O)CNC(=O)[C@H](Cc1ccc(O)cc1)NC(=O)CCCCCNC(=O)CCCC[C@@H]1SC[C@@H]2NC(=O)N[C@@H]21)C(C)C)C(C)C)C(=O)O` [bTAT-9, b - YGRKKRRQRRR-9] ({Biotin-Ahx}-YGRKKRRQRRRPGYAGAVVNDL-OH): the IC50 in the series on HSV-1 KOS mutant hrR3 [2] (setting [5]) was 110 µM; in the series “in vitro”, around 200 µM; in the series with HSV-1 KOS mutant hrR3 [3], 210 µM; in the series on HSV-1 KOS mutant hrR3 [4] (setting [6]), 2.1 µM.

As to `CC(C)C[C@H](NC(=O)CNC(=O)[C@H](CC(N)=O)NC(=O)[C@H](C)NC(=O)[C@H](Cc1ccc(O)cc1)NC(=O)[C@@H](NC(=O)[C@H](CC(=O)O)NC(=O)CNC(=O)[C@@H]1CCCN1C(=O)[C@H](CCCNC(=N)N)NC(=O)[C@H](CCCNC(=N)N)NC(=O)[C@H](CCCNC(=N)N)NC(=O)[C@H](CCC(N)=O)NC(=O)[C@H](CCCNC(=N)N)NC(=O)[C@H](CCCNC(=N)N)NC(=O)[C@H](CCCCN)NC(=O)[C@H](CCCCN)NC(=O)[C@H](CCCNC(=N)N)NC(=O)CNC(=O)[C@H](Cc1ccc(O)cc1)NC(=O)CCCCCNC(=O)CCCC[C@@H]1SC[C@@H]2NC(=O)N[C@@H]21)C(C)C)C(=O)N[C@H](C(=O)N[C@@H](C)C(=O)O)C(C)C` [bTAT-9X, b - YGRKKRRQRRR-9x] ({Biotin-Ahx}-YGRKKRRQRRRPGDVYANGLVA-OH), the IC50 was 200 µM with HSV-1 KOS mutant hrR3 [2] (33° C., read-out: Inactivation of Pre-Adsorbed Virus 33° C. IC50); 200 µM in the series with HSV-1 KOS mutant hrR3 [2] (setting [5]); 200 µM in the series on HSV-1 KOS mutant hrR3 [2] (33° C., read-out: virus inactivation IC50); 63 µM with HSV-1 KOS mutant hrR3 [2] (37° C., read-out: Inactivation of Pre-Adsorbed Virus 37° C. IC50); above 1200 µM with hrR3 virions; 2 µM in the series with HSV-1 KOS mutant hrR3 [4] (33° C., read-out: Entry Block 33° C. IC50). Besides, the IC50 in the series on HSV-1 KOS mutant hrR3 [4] (setting [6]) was 2 µM; in the series with HSV-1 KOS mutant hrR3 [4] (33° C., read-out: inhibition of entry IC50), 2 µM; with HSV-1 KOS mutant hrR3 [4] (37° C., read-out: Entry Block 37° C. IC50), 8.7 µM; with HSV-1 KOS mutant hrR3 [4] (read-out: Entry Blocking Activity IC50) it was 67 µM. For the same molecule, the “Virucidal Activity 4° C. IC50” value in the series on hrR3 (4° C.) is on record as “None”. The “Virucidal Activity 37° C. IC50” value in the series with hrR3 (37° C.) was “None”. For the same molecule, in the series with HSV-1 KOS mutant hrR3 [4] (33° C.), the “extent of inhibition of entry” value is given as around 90%.
